Some test systems named below: 786-0 renal; COLO 205 colon; EKVX NSCLC; MDA-MB-435; MDA-N; SK-MEL-2 melanoma; SK-MEL-5 melanoma; SR leukemia; T-47D breast; K-562 leukemia.
What all share (experiment): NCI anticancer screen, dose series, 48 h

Molecules are shown by their SMILES.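 Five concentrations, 48 hours, 96-well plates. At the TGI there is no net growth.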 Where a SMILES comes first, the peptide text is derived from it. [ ]: non-standard residue; d: D form. The star is where a group is joined. ξ: configuration not given here. ξD = NC(CC(=O)O)C(=O)O; Ac3c = NC1(C(=O)O)CC1; Boc = CC(C)(C)OC(=O)*; OtBu = CC(C)(C)O*

As for `COc1cc(C(c2cccc3ccccc23)N2C(=O)CCC2C(=O)NCc2ccccc2)cc(OC)c1OC` (stereo not drawn), the TGI with 786-0 renal, with COLO 205 colon, in the experiment on EKVX NSCLC, in the experiment on MDA-MB-435, in the experiment with MDA-N and with SK-MEL-2 melanoma was over 100 µM each time. Besides, the TGI in the experiment with SK-MEL-5 melanoma, with SR leukemia and in the experiment with T-47D breast was over 100 µM each time.

With `OC(CCN1CCN(CCOC(c2ccccc2)c2ccccc2)CC1)c1ccc(Br)cc1` (stereo not drawn), the TGI in the experiment on 786-0 renal is 22.8 µM; in the experiment with COLO 205 colon, 3.38 µM; with EKVX NSCLC, 23.5 µM; with MDA-MB-435, 27 µM; with MDA-N, 22.9 µM; in the experiment on SK-MEL-2 melanoma, 25.6 µM. Besides, the TGI was 12.6 µM in the experiment with SK-MEL-5 melanoma and 33.4 µM with T-47D breast.

Turning to `COc1ccc2c(c1)CC1Cc3ccccc3CCN1C2` (stereo not drawn), the TGI in the experiment on COLO 205 colon, with EKVX NSCLC, in the experiment with K-562 leukemia, with MDA-MB-435, in the experiment on MDA-N and in the experiment on SK-MEL-2 melanoma was over 100 µM in each case. Besides, the values for the TGI with SK-MEL-5 melanoma, in the experiment on SR leukemia and in the experiment on T-47D breast were 41.7 µM, over 100 µM and over 100 µM, respectively.

As for `Nc1ccc(-c2nc3ccc(F)cc3s2)cc1`, the TGI in the experiment on 786-0 renal was over 100 µM; with COLO 205 colon it was 33.2 µM; in the experiment with EKVX NSCLC, over 100 µM; in the experiment with K-562 leukemia it was over 100 µM; in the experiment with MDA-MB-435, 70.4 µM; in the experiment on MDA-N, over 100 µM. Also, the TGI with SK-MEL-2 melanoma was 39.6 µM; in the experiment with SK-MEL-5 melanoma, 37.8 µM; in the experiment with SR leukemia, over 100 µM.

For the compound `COc1cc(/C=C2\Cc3cc(OC)c(OC)cc3C2=O)cc(OC)c1`, the TGI in the experiment on 786-0 renal was over 56.6 µM; in the experiment on COLO 205 colon, over 100 µM; in the experiment on EKVX NSCLC it was over 100 µM; with K-562 leukemia, over 100 µM; in the experiment with MDA-MB-435, over 100 µM; in the experiment on MDA-N, 39.2 µM. Further, the TGI in the experiment with SK-MEL-2 melanoma, with SK-MEL-5 melanoma and in the experiment with T-47D breast was over 100 µM in each case.

In the case of `CC(C)(C)c1cc(C(=O)/C=C/c2ccn[nH]2)cc(C(C)(C)C)c1O`, the TGI amounted to 3.05 µM in the experiment on 786-0 renal; 4.98 µM in the experiment with COLO 205 colon; 28.4 µM in the experiment with EKVX NSCLC; 10.3 µM in the experiment on K-562 leukemia; 8.34 µM in the experiment on MDA-MB-435; 3.43 µM in the experiment with SK-MEL-2 melanoma. The TGI in the experiment with SK-MEL-5 melanoma came to 20.1 µM; with SR leukemia, 3.61 µM; in the experiment with T-47D breast, 3.32 µM.

In the case of `[N-]=[N+]=NC[C@H]1OCO[C@H](CN=[N+]=[N-])[C@H]2OCCOCCOc3ccccc3OCCOCCO[C@@H]21`, the TGI with 786-0 renal, with COLO 205 colon, with EKVX NSCLC, in the experiment on K-562 leukemia, in the experiment on MDA-MB-435 and with MDA-N was over 100 µM each time. Further, the TGI with SK-MEL-2 melanoma, in the experiment on SK-MEL-5 melanoma and in the experiment with T-47D breast was over 100 µM in each case.

Turning to `N#Cc1c(Nc2nc3ccccc3s2)c2ccccc2n2c1nc1ccccc12`, the TGI in the experiment with 786-0 renal, with COLO 205 colon, in the experiment with EKVX NSCLC, in the experiment on MDA-MB-435, in the experiment on MDA-N and in the experiment with SK-MEL-2 melanoma was over 100 µM throughout. For the same compound, the TGI with SK-MEL-5 melanoma, in the experiment with SR leukemia and with T-47D breast was over 100 µM in each case.

As to `CSCCCNC(=O)c1csc(-c2csc(CCNC(=O)CNC(=O)CNC(=O)CNC(=O)OC(C)(C)C)n2)n1`, the TGI in the experiment with 786-0 renal, with COLO 205 colon, with EKVX NSCLC, with K-562 leukemia, in the experiment with MDA-MB-435 and with MDA-N was over 100 µM each time. The TGI with SK-MEL-2 melanoma and with SK-MEL-5 melanoma was over 100 µM each time.

For `Cc1cc(C)c2c(=N)c3ccccc3n(CCCCCCO)c2n1`, the TGI in the experiment with 786-0 renal was 9.53 µM; in the experiment with COLO 205 colon, 2.84 µM; in the experiment on EKVX NSCLC it was 6.33 µM; in the experiment with MDA-MB-435 it was 16.7 µM; in the experiment on MDA-N, 7.42 µM; in the experiment on SK-MEL-2 melanoma, 9.47 µM. For the same compound, the TGI was 8.16 µM in the experiment with SK-MEL-5 melanoma and 12.1 µM in the experiment on T-47D breast.

Regarding `CCNc1ncnc2c1nnn2CC`, the TGI with 786-0 renal, with COLO 205 colon, in the experiment with EKVX NSCLC, in the experiment on K-562 leukemia, with MDA-MB-435 and with MDA-N was over 100 µM in each case. The TGI in the experiment with SK-MEL-2 melanoma, in the experiment with SK-MEL-5 melanoma and in the experiment with T-47D breast was over 100 µM each time.

Consider `COC(=O)C1(NC(=O)C(CC(=O)OC(C)(C)C)NC(=O)OC(C)(C)C)CC1` (stereo not drawn) (Boc-[ξD](OtBu)-[Ac3c]-OMe), for which the TGI with 786-0 renal, in the experiment on COLO 205 colon, in the experiment on EKVX NSCLC, in the experiment on K-562 leukemia, with MDA-MB-435 and with MDA-N was over 100 µM each time. The TGI in the experiment with SK-MEL-2 melanoma, in the experiment on SK-MEL-5 melanoma and in the experiment on T-47D breast was over 100 µM throughout.

`Oc1ccc(Cl)cc1C1=N/C(=N\C/N=C2\N=C(c3cc(Cl)ccc3O)CC(c3ccccc3)N2)NC(c2ccccc2)C1` (stereo not drawn): the TGI in the experiment with 786-0 renal, in the experiment with COLO 205 colon, in the experiment on EKVX NSCLC, with K-562 leukemia, in the experiment on MDA-MB-435 and in the experiment on MDA-N was over 100 µM in each case. In addition, the TGI with SK-MEL-2 melanoma, in the experiment on SK-MEL-5 melanoma and in the experiment on SR leukemia was over 100 µM in each case.

In the case of `CC1=C[C@@H](C)C[C@]2(C)CC[C@H](O2)[C@]23CC[C@](C)(C[C@H](O2)[C@@H]2O[C@@](C)(CC2=O)[C@@H](O)[C@H]2CC[C@@]4(CCC[C@@H](O4)[C@H](C)C(=O)O[C@H]4C[C@H]([C@]5(O)OCC[C@H](C)[C@@H]5O)O[C@H]4C=C1)O2)O3`, the TGI was 0.181 µM in the experiment on 786-0 renal; 0.00188 µM with COLO 205 colon; 0.128 µM in the experiment on EKVX NSCLC; over 10 µM with K-562 leukemia; over 10 µM in the experiment on MDA-N; over 10 µM with SK-MEL-2 melanoma. Moreover, the TGI is 0.0212 µM in the experiment with SK-MEL-5 melanoma, over 10 µM with SR leukemia and over 10 µM with T-47D breast.
